# Data published in publication PMC3909264, “A Novel Acylaminoimidazole Derivative, WN1316, Alleviates Disease Progression via Suppression of Glial Inflammation in ALS Mouse Model” (PLoS ONE, 2014).
# Counter-ions that a name gives are not always drawn.
# Legend:
# [1] = Complexing with protein in rat serum; format: in vitro ADME; details: rat sera, unpublished data
# NAIP in THP-1 cells = experiment: Western blot of NAIP in THP-1 cells; format: cell-based, human; details: 1 to 16 µM, 24 h
# Protocol: Human monocytic leukemia cell line THP-1 (ATCC, TIB-202) was cultured in RPMI-1640 (Wako) supplemented with 10% fetal bovine serum, 100 U/ml penicillin, and 100 µg/ml streptomycin at 37°C in 5% CO2. Approximately 1×10^5 cells, which were pretreated with 1 to 16 µM WN1316 or DMSO in the presence or absence of 1 mM NAC for 24 h, were plated on a 96-well plate and exposed to 80 µM menadione for 16 h. Cell viability was measured by AlamarBlue assay. For Western blotting, cell lysates were prepared by using M-PER mammalian protein extraction reagent (Thermo scientific) according to standard procedure.
# [2] = test system: Nrf2 signaling pathway in SH-SY5Y cells; experiment: Nrf2-regulated gene expression (RT-PCR, Western blot); format: cell-based, human; details: 10 µM, within 3 h
# Protocol: Total RNA was extracted from cells using the TRIzol reagent (Invitrogen). Isolated total RNA was purified using the SV Total RNA Isolation System (Promega) according to the manufacturer’s instruction. RT-PCR was performed with QIAGEN onestep RT-PCR kit (QIAGEN). The housekeeping peptidylprolyl isomerase A (PPIA) gene was used as an internal control. PCR primers specific to each gene are as follows: ATF3, 5′-[…]-3′, and 5′-[…]-3′ (268 bp); GCLM, 5′-[…]-3′, and 5′-[…]-3′ (367 bp); HO-1, 5′-[…]-3′, and 5′-[…]-3′ (348 bp); NQO1, 5′-[…]-3′, and 5′-[…]-3′ (298 bp); Nrf2, 5′-[…]-3′, and 5′-[…]-3′ (263 bp); p21/CDKN1A, 5′-[…]-3′, and 5′-[…]-3′ (201 bp); p62/SQSTM1, 5′-[…]-3′, and 5′-[…]-3′ (330 bp); PPIA, 5′-[…]-3′, and 5′-[…]-3′ (184 bp). Amplified products were electrophoretically resolved by a 2.0% agarose gel, stained with ethidium bromide, and photographed under ultraviolet light.
# SH-SY5Y cells (3×10^5 cells) were washed twice with ice-cold PBS and incubated in 1 ml of ice-cold 10% trichloroacetic acid for 30 min. Cells were centrifuged at 22,000×g for 15 min at 4°C and lysed by pipetting in 80 µl of 9 M urea containing 2% Triton X-100 and 1% dithiothreitol. After the addition of 20 µl of 10% lithium dodecyl sulfate and 2 µl of 2 M Tris base, cell lysates were sonicated until their viscosity disappeared. […]
# [3] = Water solubility (stated property); format: physicochemical
# HO-1 mRNA = experiment: qRT-PCR of HO-1 mRNA in lumbar spinal cord of wild type mice; format: in vivo, mouse (C57BL/6N); details: 100 µg/kg oral, 3 h post-administration
# Protocol: Wild type mice at 8 weeks of age (male, C57BL/6N) were administered per os with either vehicle (physiological saline) or WN1316 (100 µg/kg body weight). After 1 h, 3 h, 6 h and 9 h, mice were transcardially perfused with physiological saline containing 10% heparin under anesthesia with 2% isoflurane by inhalation, and the lumbar spinal cord was dissected. Total RNA was extracted from lumbar spinal cord using Sepasol-RNA I Super G (Nacalai Tesque), and purified by SV Total RNA Isolation System (Promega) according to manufacturer's instructions. qRT-PCR was performed with QuantiFast™ SYBR Green RT-PCR Kit (QIAGEN) on CFX96 (BIO RAD). The PCR primers (QuantiTect Primer Assays) for HO-1 (Mm_Hmox1_1_SG) and PPIA (Mm_Ppia_1_SG) were purchased from QIAGEN. The levels of all transcripts were normalized for the PPIA mRNA level in each sample. Relative expression was calculated using the ΔΔCt method (Livak 2001).
compound,measurement,setting,value
"Cc1cc(C)c(N(C)CC(=O)Nc2nc(-c3ccccn3)c[nH]2)c(C)c1 [WN1316, 2-[mesityl(methyl)amino]-N-[4-(pyridin-2-yl)-1H-imidazol-2-yl] acetamide trihydrochloride]",protein complexing in serum,[1],complexes with protein
same,NAIP protein level,NAIP in THP-1 cells,dose-dependent upregulation
same,"mRNA of Nrf2-regulated genes (Nrf2, ATF3, HO-1, GCLM, NQO1, p21, p62)",[2],increased
same,water solubility (in words),[3],highly soluble in water
same,HO-1 mRNA in the lumbar spinal cord,HO-1 mRNA,transient induction
